What is called ED50 is the midpoint of the dose-response relation. High values mean a need for a large dose, low ones an effect at a small dose.

This note sets out measurements from patent EP0808325B1, “[…] […] SERIES FOR […] GABA RECEPTOR” (priority 1994, dated 1996).

In one assay the test system is maximal electroshock. In words: maximal electroshock test. The assay is classed as in vivo, mice. The settings on record: Mus musculus, ip, 20% hydroxypropyl-β-cyclodextrin in water. An excerpt:
The anticonvulsant tests are similar to that described above. […]

Assay [1] has as its system mice. In words: light/dark transition test. It counts as in vivo, N.I.H. Swiss-Webster mice. The settings on record: IP. An excerpt: The light/dark transition test (Crawley and Goodwin, Pharmacol. Biochem. Behav. 13:67-70 1980) is based on the observation that rodents naturally tend to explore novel environments, but open, brightly lit arenas are aversive to the rodents and inhibit exploratory behavior (Christmas and Maxwell, Neuropharmacol. 9:17-29 1970; File, J. Neurosci. Meth. 2:219-238 1980).
Male N.I.H. Swiss-Webster mice (Harlan, Harlan, Indianapolis, IN) weighing 15-20 g were housed four per cage in polyethylene cages with sawdust bedding. The colony room was environmentally controlled (22°C) with a 12 hr light/dark cycle (0600-1800 hr). Food and water were available ad libitum, except during testing. The experiments were run from 0700-1500 hr and groups were counterbalanced for time of day effects. Mice were only administered drug or vehicle once.
The method used was a modification of methods previously described (Wieland et al., Br. Res. 565:263-268 (1991)). The apparatus included two 2-compartment automated test chambers (Model RXYZCM16, Omnitech Electronics, Columbus, OH). The open compartment was connected to the enclosed compartment via a 7.5 x 7.5 cm passageway. The open compartment was brightly lit using a 200 W incandescent light bulb. The experimental room was kept dark. Interruptions of the infrared beams in either chamber were automatically recorded by being linked to a computer through a Digiscan Analyzer (Omnitech Electronics) and the data was analyzed using the Integrated Lab Animal Monitoring System (Omnitech Electronics).
N.I.H. Swiss-Webster mice were administered vehicle or test drug intraperitoneally (IP), 10 min later they were placed in the center of the lit compartment. The number of transitions between the lit and dark chambers, total activity in the lit chamber and the time spent in the lit chamber were measured during a 10 min test period.

In assay [2] the test system is mice. In words: elevated plus-maze. The assay is classed as in vivo, N.I.H. Swiss-Webster mice. The procedure, abridged: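 Male Swiss-Webster mice (15-20 g), dosed once with drug or vehicle, were placed on an elevated plus-maze 10 min post-injection for 5 min. Open-arm entries and open-arm time recorded, each as a percentage of total arm entries or time; center time excluded.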

In a further assay the test system is rats. In words: Geller-Seifter conflict test. It counts as in vivo, Sprague-Dawley rats. The procedure, abridged: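 Food-restricted (85% free-feeding weight) male Sprague-Dawley rats, 250-300 g, trained 4-6 weeks to lever-press for milk under a 63-min schedule: VI 2-min unpunished periods alternating with four 3-min signalled conflict periods where each press gave milk plus foot-shock. Increased punished responding indexed antianxiety activity; decreased unpunished responding indexed sedation.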

Setting [3] is: conflict test, subcutaneous administration.

Molecules are shown by their SMILES.

Take `CC(=O)[C@H]1CC[C@H]2[C@@H]3CC[C@H]4C[C@H](O)CC[C@]4(C)[C@H]3CC[C@]12C` [3α-hydroxy-5α-pregnan-20-one, reference compound]: in the assay with maximal electroshock, the median effective dose (ED50) is 28.6 mg/kg. Moreover, the activity result in the assay with mice [1] (10 & 20 mg/kg, compared to control groups) is reported as “significant (p < 0.01) increases”. The “number of transitions between the dark box and the light box” value in the assay on mice [1] (at doses tested, versus control (Dunnett's t-test)) is on record as “significantly increased”. Further, the “time spent on the open-arms” value with mice [2] (10 mg/kg (p ≤ 0.01)) was “significant increases”. Also, in the assay on mice [2] (20 mg/kg (p ≤ 0.05)), the “entries into the open-arms” value is given as “significant increase”. Further, the “% Control” value with mice [2] (IP, 50% hpbcd, 20 mg/kg) came to 143.7%. Moreover, in the assay on rats (setting [3]), the “dose at which the peak effect was observed” value was 4.4 mg/kg and the “rate of punished responses” value is given as “large increases”. Also, the “Geller/Seifter (% of control)” value in the assay with rats (sc, 50% hpbcd, 5 mg/kg) is reported as 471.8 % of control.
